Assay [1] has as its target T1, 5-hydroxytryptamine receptor 1A (Rattus norvegicus, UniProt P19327).
T1 sequence (P19327 whole entry): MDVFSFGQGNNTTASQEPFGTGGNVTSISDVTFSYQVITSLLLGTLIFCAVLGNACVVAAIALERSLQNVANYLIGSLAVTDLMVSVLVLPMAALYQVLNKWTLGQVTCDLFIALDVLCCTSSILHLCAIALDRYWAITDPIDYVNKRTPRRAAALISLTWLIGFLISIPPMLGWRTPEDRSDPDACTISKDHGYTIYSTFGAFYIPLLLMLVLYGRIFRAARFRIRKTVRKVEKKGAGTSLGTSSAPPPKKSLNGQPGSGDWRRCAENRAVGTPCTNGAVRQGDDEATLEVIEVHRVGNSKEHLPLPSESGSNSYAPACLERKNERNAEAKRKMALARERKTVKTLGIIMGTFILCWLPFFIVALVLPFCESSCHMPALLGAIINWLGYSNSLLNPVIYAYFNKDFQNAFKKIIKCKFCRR

For assay [2], the target named is 5-hydroxytryptamine receptor 1B (Rattus norvegicus, UniProt P28564).
5-hydroxytryptamine receptor 1B, sequence (P28564 whole entry): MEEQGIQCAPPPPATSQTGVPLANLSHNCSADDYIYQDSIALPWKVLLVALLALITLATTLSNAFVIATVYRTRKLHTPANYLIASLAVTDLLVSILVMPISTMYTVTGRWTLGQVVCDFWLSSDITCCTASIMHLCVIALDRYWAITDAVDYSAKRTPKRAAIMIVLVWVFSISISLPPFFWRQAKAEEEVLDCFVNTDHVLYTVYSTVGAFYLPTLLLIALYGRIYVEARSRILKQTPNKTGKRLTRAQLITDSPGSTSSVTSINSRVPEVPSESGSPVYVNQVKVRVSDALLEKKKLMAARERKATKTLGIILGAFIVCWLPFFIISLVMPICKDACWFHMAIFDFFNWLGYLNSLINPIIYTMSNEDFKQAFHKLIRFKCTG
Assay [3] addresses T2, 5-hydroxytryptamine receptor 2C (Rattus norvegicus, UniProt P08909).
T2 sequence (P08909 whole entry): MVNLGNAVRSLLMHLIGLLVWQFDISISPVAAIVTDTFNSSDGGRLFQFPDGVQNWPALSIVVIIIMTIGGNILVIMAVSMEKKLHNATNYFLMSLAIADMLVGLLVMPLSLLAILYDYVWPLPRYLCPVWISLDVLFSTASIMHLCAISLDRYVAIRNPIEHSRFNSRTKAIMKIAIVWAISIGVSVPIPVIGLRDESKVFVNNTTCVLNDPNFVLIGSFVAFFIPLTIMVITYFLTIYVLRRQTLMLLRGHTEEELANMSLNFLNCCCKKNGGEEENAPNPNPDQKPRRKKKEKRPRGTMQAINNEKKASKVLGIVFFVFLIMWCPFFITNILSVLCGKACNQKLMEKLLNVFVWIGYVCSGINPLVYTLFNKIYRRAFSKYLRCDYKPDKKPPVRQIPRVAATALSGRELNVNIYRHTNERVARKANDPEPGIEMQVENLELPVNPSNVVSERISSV

Assay [4] addresses 5-hydroxytryptamine receptor 1D (Rattus norvegicus, UniProt P28565).
Assay [5] deals with T3, 5-hydroxytryptamine receptor 3A (Rattus norvegicus, UniProt P35563).
T3 sequence (P35563 whole entry): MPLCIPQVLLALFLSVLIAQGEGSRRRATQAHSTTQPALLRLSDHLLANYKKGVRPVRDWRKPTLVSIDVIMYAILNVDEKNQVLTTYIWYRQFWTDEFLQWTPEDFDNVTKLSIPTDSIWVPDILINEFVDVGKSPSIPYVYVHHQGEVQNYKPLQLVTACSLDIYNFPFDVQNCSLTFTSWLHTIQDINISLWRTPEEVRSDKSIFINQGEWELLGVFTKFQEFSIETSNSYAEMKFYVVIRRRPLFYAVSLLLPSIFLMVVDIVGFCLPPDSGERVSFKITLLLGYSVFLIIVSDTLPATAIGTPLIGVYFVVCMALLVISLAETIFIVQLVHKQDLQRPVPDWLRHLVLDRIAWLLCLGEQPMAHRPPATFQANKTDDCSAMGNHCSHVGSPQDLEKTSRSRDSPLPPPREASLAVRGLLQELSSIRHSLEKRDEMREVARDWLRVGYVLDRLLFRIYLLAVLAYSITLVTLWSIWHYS

Assay [6] has as its target 5-hydroxytryptamine receptor 4 (Rattus norvegicus, UniProt Q62758).
Assay [7] concerns the target T4, Alpha-1A adrenergic receptor (Rattus norvegicus, UniProt P43140).
T4 sequence (P43140 whole entry): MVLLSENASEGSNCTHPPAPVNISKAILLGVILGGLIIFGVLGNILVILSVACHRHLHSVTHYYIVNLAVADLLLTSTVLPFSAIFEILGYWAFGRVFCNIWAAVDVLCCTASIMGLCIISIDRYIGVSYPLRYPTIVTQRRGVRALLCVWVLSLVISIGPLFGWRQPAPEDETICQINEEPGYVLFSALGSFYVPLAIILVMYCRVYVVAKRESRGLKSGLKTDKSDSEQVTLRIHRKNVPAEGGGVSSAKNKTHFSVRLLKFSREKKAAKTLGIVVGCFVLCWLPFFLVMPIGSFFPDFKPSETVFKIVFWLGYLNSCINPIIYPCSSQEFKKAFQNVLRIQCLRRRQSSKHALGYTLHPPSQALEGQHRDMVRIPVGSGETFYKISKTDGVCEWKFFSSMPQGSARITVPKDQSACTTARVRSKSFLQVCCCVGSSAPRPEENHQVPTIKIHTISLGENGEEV

Several values for one entry are separate records, joined by “and”; a condition that tells them apart may be missing. Equal entries are not always repeated. Bounds are passed on as bounds.

5-hydroxytryptamine receptor 4, sequence (Q62758 whole entry): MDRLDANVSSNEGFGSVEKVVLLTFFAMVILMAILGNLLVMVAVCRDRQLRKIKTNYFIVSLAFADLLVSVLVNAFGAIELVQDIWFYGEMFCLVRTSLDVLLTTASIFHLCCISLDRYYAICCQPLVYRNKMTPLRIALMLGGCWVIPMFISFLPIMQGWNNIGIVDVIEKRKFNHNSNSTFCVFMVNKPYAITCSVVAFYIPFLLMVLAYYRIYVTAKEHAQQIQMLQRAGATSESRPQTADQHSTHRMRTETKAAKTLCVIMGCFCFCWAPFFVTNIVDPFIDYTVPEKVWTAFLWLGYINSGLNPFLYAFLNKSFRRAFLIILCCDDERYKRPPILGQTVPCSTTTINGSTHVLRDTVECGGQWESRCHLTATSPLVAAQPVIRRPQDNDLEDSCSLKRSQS
5-hydroxytryptamine receptor 1D, sequence (P28565 whole entry): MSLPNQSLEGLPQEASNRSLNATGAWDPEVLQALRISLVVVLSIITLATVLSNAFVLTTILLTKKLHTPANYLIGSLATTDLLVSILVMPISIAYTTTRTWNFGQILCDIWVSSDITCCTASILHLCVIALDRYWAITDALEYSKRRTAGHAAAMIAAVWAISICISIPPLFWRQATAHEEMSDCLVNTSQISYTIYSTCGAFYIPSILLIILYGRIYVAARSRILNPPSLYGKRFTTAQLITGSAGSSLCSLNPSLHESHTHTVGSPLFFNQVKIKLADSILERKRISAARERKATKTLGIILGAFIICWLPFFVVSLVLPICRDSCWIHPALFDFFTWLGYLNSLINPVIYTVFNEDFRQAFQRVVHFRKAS

What is called Ki is the dissociation constant of the complex between target and ligand, obtained from inhibition or displacement. Read a high Ki as a looser hold on the target. Take `O=c1[nH]c2ccccc2n1CCN1CCN(c2ccc(C(F)(F)F)cc2)CC1` [CAS_127941]: the Ki was 47.9 nM and 19.1 nM in assay [1]; 2090 nM in assay [2]; 3980 nM in assay [3]; 2510 nM in assay [4]; above 10000 nM in assay [5]; above 10000 nM in assay [6].

On to `COc1cccc(OC)c1OCCNCC1Oc2ccccc2OC1c1ccccc1` (centres undefined) [NSC_185453], for which the inhibitory constant (Ki) in assay [7] turned out to be 0.3 nM.

Compound `CN1C2CCC1CC(OC(=O)c1cc(Cl)cc(Cl)c1)C2` (centres undefined) [MDL 72222] registered a Ki in assay [5] of 0.8 nM.

As to `CCCN(CCC)C1CCc2cccc(O)c2C1` (centres undefined), the Ki in assay [5] and in assay [6] was above 10000 nM each time.

For the compound `CCn1c(=O)n(C(=O)NC2CC3CCC(C2)N3C)c2ccccc21` (centres undefined) [BIMU 1], the Ki in assay [6] worked out at 0.19 nM. In other words, the sub-nanomolar range.

With `O=C1CC2(CCCC2)CC(=O)N1CCCCN1CCN(c2ncccn2)CC1` [BUSPAR], the Ki in assay [4], in assay [5] and in assay [6] was above 10000 nM in each case.

The values are drawn from BindingDB's records for doi:10.1007/bf00168557 (Boehringer Ingelheim Italia, 1995).
